#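 Briefly, cells in 96-well plates were exposed to five compound concentrations for 48 h, and endpoints were estimated by linear interpolation. TGI denotes the concentration required for complete inhibition of growth.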
# Tests used:
# Assay in all cases: DTP human tumour cell line panel, 48 h
# UO-31 renal = test system: UO-31 renal
# CAKI-1 renal = test system: CAKI-1 renal
# HS 578T breast = test system: HS 578T breast
# CCRF-CEM leukemia = test system: CCRF-CEM leukemia
# NCI-H226 lung = test system: NCI-H226 lung
# MALME-3M melanoma = test system: MALME-3M melanoma
# NCI-H522 lung = test system: NCI-H522 lung
# HCT-116 colon = test system: HCT-116 colon
# 786-0 renal = test system: 786-0 renal
SMILES,TGI (UO-31 renal) [µM],TGI (CAKI-1 renal) [µM],TGI (HS 578T breast) [µM],TGI (CCRF-CEM leukemia) [µM],TGI (NCI-H226 lung) [µM],TGI (MALME-3M melanoma) [µM],TGI (NCI-H522 lung) [µM],TGI (HCT-116 colon) [µM],TGI (786-0 renal) [µM]
O=C(O)[C@@H]1C[C@@H](O)CN1C(=O)OCc1ccccc1,> 100,> 100,> 100,> 100,> 100,> 100,> 100,> 100,> 100
Nc1c2ccccc2nc2c1ccc1ncccc12,40.2,92.1,,39,43.9,27,38.3,> 100,> 100
Cc1ccccc1OC(C)C(=O)NN1C(=O)CC(=O)N(c2ccc(Cl)cc2)C1=S (configuration not stated),> 100,> 100,> 100,57,> 100,> 100,> 100,53,> 100
O=C1c2ccccc2CN1c1ccc(O)cc1,,> 100,> 100,> 100,> 100,> 100,> 100,> 100,> 100
CCC1=CCC23C(=O)C=CC(=O)C2(C1)C(=O)c1cccc(OC)c1C3=O (configuration not stated),22.7,26.1,57.3,28.1,67.2,30,> 100,30.4,24.8
NC(CSCc1ccccc1)C(=O)O (configuration not stated),> 100,> 100,> 100,> 100,> 100,> 100,> 100,> 100,> 100
C=C(Cl)/C(=C\Cl)CCC(Br)C(C)C (configuration not stated),> 100,> 100,> 100,> 100,> 100,,39.9,> 100,> 100
COC(=O)c1c(C)cccc1/C=C1/Cc2c(C)cccc2C1=O,> 100,> 100,> 100,,> 100,> 100,> 100,> 100,> 100
CC(CC(C#N)(c1ccccc1)c1ccccc1)N1CCCCC1 (configuration not stated),79.6,> 100,79.9,46.6,46.4,35.6,36.7,57.7,80.3
c1ccc2c(c1)[nH]c1nc3cc(-c4ccc5nc6c(nc5c4)[nH]c4ccccc46)ccc3nc12,> 100,> 100,> 100,> 100,> 100,> 100,78.4,> 100,> 100
O=C1/C(=C/c2ccccc2S)N=C(c2ccccc2)N1c1nc2ccc(Sc3ccccc3)cc2[nH]1,> 100,> 100,72.6,> 100,,> 100,54.2,> 100,87.1
O=C1NCCCc2nonc21,> 100,> 100,> 100,> 100,> 100,> 100,,> 100,> 100

# Source: PubChem BioAssay (NCI)
